Here are results for 2 compounds from article PMC12345137 (mBio, 2025).

Read-outs that look alike come from different tables or passages of the source. Positions of bridges follow the written chain, without caps; N, C: chain ends. Residues, ends and D or L forms follow the SMILES beside them.

One test deals with S. epidermidis agr-II (Staphylococcus epidermidis, UniProt Q8VSX5). Briefly: cell-based. In kind it is cell-based. Particulars: fluorescent reporter strain; peptides tested at 1000, 50, 2.5, 0.125 nM or in dose-response. On the procedure: (§1) Peptides were evaluated for the ability to interfere with agr-mediated quorum sensing in S. aureus (AH1677, AH430, AH1747, and AH1872 for agr-I–IV, respectively) ([40]) using reporter strains expressing yellow fluorescent protein (YFP) upon agr activation. Interference with agr-mediated quorum sensing in S. epidermidis (AH3408, AH3623, and AH3409 for agr-I–III, respectively) ([45]), and S. lugdunensis (AH4031 for agr-I) ([37]) was evaluated using reporter strains expressing superfolder green fluorescent protein (sGFP) upon agr activation. Overnight cultures of the reporter strains were grown in TSB medium containing chloramphenicol (CAM, 10 μg/mL for S. aureus) or erythromycin (ERM, 10 μg/mL of S. epidermidis and S. lugdunensis) and diluted 1:100 in fresh TSB medium containing the same antibiotic. Assays were performed in sterile black 96-well plates with a clear bottom. […] DMSO stock solutions of peptides (1 mM) were diluted in TSB media and added (15 μL) in technical triplicate to the 96-well plate, followed by diluted bacterial overnight cultures (135 μL). Control wells for 100% agr activity were wells replacing the peptide solution with TSB medium (15 μL). […] Wells containing 150 μL TSB medium were used to measure background fluorescence. The 96-well plates were incubated in a humidified incubator at 37°C shaking at 1,000 rpm for 22–24 h and fluorescence (for GFP: excitation 479 nm, emission 520 nm; for YFP: excitation 500 nm, emission 541 nm; automatic gain), and OD600 values were subsequently measured using a plate reader. Background fluorescence was subtracted from all wells and further normalized to the corresponding OD600 value of the respective wells. The average fluorescence of control wells was used as a relative measure for 100% activation of the agr-circuit, and bar graphs were generated using GraphPad Prism 10.4 software. All assays were performed in at least a biological duplicate.
(§2) Overnight cultures of the reporter strains were grown in TSB medium containing chloramphenicol (CAM, 10 μg/mL for S. aureus) or erythromycin (ERM, 10 μg/mL of S. epidermidis and S. lugdunensis) and diluted 1:100 in fresh TSB medium containing the same antibiotic. Assays were performed in sterile black 96-well plates with clear bottoms. Peptide solutions (15 μL) in 1:5 serial dilutions from DMSO stock solutions (1 mM) in TSB medium were added to the 96-well plate in technical duplicate followed by diluted bacterial overnight cultures (135 μL). Control wells for 100% agr activity were wells replacing the peptide solution with TSB medium (15 μL). Wells containing 150 μL TSB medium were used to measure background fluorescence. The 96-well plates were incubated in a humidified incubator at 37°C shaking at 1,000 rpm for 22–24 h and fluorescence (for GFP: excitation 479 nm, emission 520 nm; for YFP: excitation 500 nm, emission 541 nm; automatic gain), and OD600 values were subsequently measured using a plate reader. Background fluorescence was subtracted from all wells and further normalized to the corresponding OD600 value of the respective wells. The average fluorescence of control wells was used as a relative measure for 100% activation of the agr-circuit. Relative agr activity was plotted to obtain IC50 values by non-linear regression with variable slope using GraphPad Prism 10.4 software. All assays were performed in biological triplicate.

Another test deals with SA AgrC-I (Staphylococcus aureus, UniProt O07911). Briefly: β-Lactamase assay, reporter strain RN10829 (P2-agrA:P3-blaZ) with pagrC-I. It is filed as cell-based. An excerpt:
The β-lactamase reporter strain RN10829 (P2-agrA:P3-blaZ) ([62]), with pagrC-I ([63]), pagrC-II, pagrC-III, or pagrC-IV ([11]), substituting the native agr locus with a chromosomal integration of P2-agrA and P3-blaZ and a plasmid from which a wild-type variant of the corresponding AgrC is expressed, was used to assess inhibition and activation of the AgrC receptor via β-lactamase activity in response to varying concentrations of the QS modulating peptides. Overnight cultures of the reporter strains in TSB medium were diluted 1:250 in fresh TSB medium and grown to OD600 = 0.35–0.40 (early exponential phase) at 37°C. Peptide solutions (10 μL) in 1:10 serial dilutions from DMSO stock solutions (1 mM) in TSB medium (final concentrations = 10 μM–10 pM) were added to each well of a clear 96-well plate as well as solutions (10 μL) of cognate AIP (final concentration = 100 nM) in TSB medium followed by 80 μL of bacterial cells. […] The 96-well plates were incubated at 37°C shaking at 200 rpm for 1 h and immediately frozen down at −80°C to minimize growth during nitrocefin treatment. Next, the 96-well plates were thawed, and OD600 values were determined using a plate reader followed by the addition of 50 μL of nitrocefin solution to the wells (final concentration = 33.3 μg/mL). β-Lactamase activity was monitored at OD486 every 20 s for 10 min at 37°C using a plate-reader. Linear nitrocefin conversion rates were plotted to obtain IC50 values by non-linear regression with variable slope using GraphPad Prism 10.4 software. Assays were performed at least as duplicate determinations in biological triplicate.

Another test addresses SA AgrC-II (Staphylococcus aureus, UniProt O33587). Briefly: β-Lactamase assay, reporter strain RN10829 (P2-agrA:P3-blaZ) with pagrC-II. It is filed as cell-based. An excerpt:
(§3) The β-lactamase reporter strain RN10829 (P2-agrA:P3-blaZ) ([62]), with pagrC-I ([63]), pagrC-II, pagrC-III, or pagrC-IV ([11]), substituting the native agr locus with a chromosomal integration of P2-agrA and P3-blaZ and a plasmid from which a wild-type variant of the corresponding AgrC is expressed, was used to assess inhibition and activation of the AgrC receptor via β-lactamase activity in response to varying concentrations of the QS modulating peptides. Overnight cultures of the reporter strains in TSB medium were diluted 1:250 in fresh TSB medium and grown to OD600 = 0.35–0.40 (early exponential phase) at 37°C. Peptide solutions (10 μL) in 1:10 serial dilutions from DMSO stock solutions (1 mM) in TSB medium (final concentrations = 10 μM–10 pM) were added to each well of a clear 96-well plate as well as solutions (10 μL) of cognate AIP (final concentration = 100 nM) in TSB medium followed by 80 μL of bacterial cells. Control wells for 100% β-lactamase activity were wells replacing peptide solution with TSB media (10 μL), and control wells for 0% β-lactamase activity were wells replacing both peptide and cognate AIP solutions with TSB medium (20 μL). The 96-well plates were incubated at 37°C shaking at 200 rpm for 1 h and immediately frozen down at −80°C to minimize growth during nitrocefin treatment. Next, the 96-well plates were thawed, and OD600 values were determined using a plate reader followed by the addition of 50 μL of nitrocefin solution to the wells (final concentration = 33.3 μg/mL). β-Lactamase activity was monitored at OD486 every 20 s for 10 min at 37°C using a plate-reader. Linear nitrocefin conversion rates were plotted to obtain IC50 values by non-linear regression with variable slope using GraphPad Prism 10.4 software. Assays were performed at least as duplicate determinations in biological triplicate.

The next test concerns the target SA AgrC-III (Staphylococcus aureus, UniProt O33590). Briefly: β-Lactamase assay, reporter strain RN10829 (P2-agrA:P3-blaZ) with pagrC-III. It is filed as cell-based.
Text: as §3

For the next test, the target named is SA AgrC-IV (Staphylococcus aureus, UniProt Q309Z2). Briefly: β-Lactamase assay, reporter strain RN10829 (P2-agrA:P3-blaZ) with pagrC-IV. Particulars: 100 nM cognate AIP; ± SEM; -b = no inhibition recorded at the highest AIP concentration tested; -a = only partial inhibition observed; this study (curves in Fig. S22). In kind it is cell-based.
Text: as §3

The subject of test [1] is S. epidermidis (SE) agr-I. Particulars: fluorescence, cited from earlier work.
Test [2] concerns S. epidermidis (SE) agr-II. Particulars: fluorescence, cited from earlier work.
The subject of test [3] is S. epidermidis (SE) agr-III. Particulars: fluorescence, cited from earlier work.
For a further test, the target named is S. epidermidis agr-I (Staphylococcus epidermidis, UniProt Q5HMY3). Briefly: cell-based. In kind it is cell-based. Particulars: fluorescent reporter strain; peptides tested at 1000, 50, 2.5, 0.125 nM or in dose-response. The protocol:
as §1, with “μL).” for “μL). Control wells for 100% agr activity were wells replacing the peptide solution with TSB medium (15 μL).”
as §2, with “Control wells for 100% agr activity were wells replacing the peptide solution with TSB medium (15 μL).” left out

The test system of the next test is S. aureus (SA) agr-I. Particulars: fluorescence, cited from earlier work.
The next test concerns S. aureus (SA) agr-II. Particulars: fluorescence, cited from earlier work.
The next test concerns S. aureus (SA) agr-III. Particulars: fluorescence, cited from earlier work.
The subject of a further test is S. aureus (SA) agr-IV. Particulars: fluorescence, cited from earlier work.

SA AgrC-I, sequence (O07911 entry or part of it): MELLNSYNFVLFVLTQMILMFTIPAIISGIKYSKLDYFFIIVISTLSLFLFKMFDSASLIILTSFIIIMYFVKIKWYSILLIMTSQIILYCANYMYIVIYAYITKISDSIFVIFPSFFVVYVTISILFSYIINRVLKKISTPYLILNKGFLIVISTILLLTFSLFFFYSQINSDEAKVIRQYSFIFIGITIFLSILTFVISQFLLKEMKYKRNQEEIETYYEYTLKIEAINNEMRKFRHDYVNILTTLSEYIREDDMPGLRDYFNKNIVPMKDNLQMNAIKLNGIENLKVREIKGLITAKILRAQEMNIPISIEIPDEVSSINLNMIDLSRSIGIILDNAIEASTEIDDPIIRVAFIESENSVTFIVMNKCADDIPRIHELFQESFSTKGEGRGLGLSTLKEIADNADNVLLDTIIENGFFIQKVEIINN
SA AgrC-IV, sequence (Q309Z2 entry or part of it): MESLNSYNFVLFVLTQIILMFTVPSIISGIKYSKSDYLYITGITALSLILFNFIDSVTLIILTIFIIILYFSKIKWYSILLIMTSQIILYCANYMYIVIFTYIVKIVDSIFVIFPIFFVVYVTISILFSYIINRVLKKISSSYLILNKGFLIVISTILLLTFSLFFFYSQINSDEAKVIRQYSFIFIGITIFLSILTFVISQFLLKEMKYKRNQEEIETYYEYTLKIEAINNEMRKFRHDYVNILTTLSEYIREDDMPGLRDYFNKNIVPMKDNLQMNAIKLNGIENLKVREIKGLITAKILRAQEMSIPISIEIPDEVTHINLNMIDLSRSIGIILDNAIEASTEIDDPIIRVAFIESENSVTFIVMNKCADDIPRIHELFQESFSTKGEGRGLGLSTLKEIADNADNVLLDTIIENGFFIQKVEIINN
SA AgrC-II, sequence (O33587 entry or part of it): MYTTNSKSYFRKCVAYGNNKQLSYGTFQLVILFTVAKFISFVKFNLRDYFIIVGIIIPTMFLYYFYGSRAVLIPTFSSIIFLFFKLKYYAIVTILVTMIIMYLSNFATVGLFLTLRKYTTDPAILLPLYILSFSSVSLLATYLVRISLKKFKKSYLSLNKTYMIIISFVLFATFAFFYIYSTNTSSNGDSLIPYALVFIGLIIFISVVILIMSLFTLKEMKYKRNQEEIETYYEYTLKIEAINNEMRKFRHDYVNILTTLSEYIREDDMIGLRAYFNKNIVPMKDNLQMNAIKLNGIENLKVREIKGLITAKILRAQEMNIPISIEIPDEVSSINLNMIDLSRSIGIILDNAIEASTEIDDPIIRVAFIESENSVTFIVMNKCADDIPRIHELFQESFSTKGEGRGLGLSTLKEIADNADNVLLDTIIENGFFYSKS
SA AgrC-III, sequence (O33590 entry or part of it): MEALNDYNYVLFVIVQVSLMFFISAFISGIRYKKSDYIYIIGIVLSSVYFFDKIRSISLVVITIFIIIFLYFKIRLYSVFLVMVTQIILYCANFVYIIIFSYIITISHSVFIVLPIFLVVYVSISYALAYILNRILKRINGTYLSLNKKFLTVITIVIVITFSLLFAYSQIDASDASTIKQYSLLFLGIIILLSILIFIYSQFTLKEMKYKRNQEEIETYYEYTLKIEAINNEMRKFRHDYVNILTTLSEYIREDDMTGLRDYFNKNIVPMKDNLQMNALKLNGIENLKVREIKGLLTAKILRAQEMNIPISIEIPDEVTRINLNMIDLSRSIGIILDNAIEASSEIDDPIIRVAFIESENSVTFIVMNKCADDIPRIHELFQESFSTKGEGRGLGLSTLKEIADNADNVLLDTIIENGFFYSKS
S. epidermidis agr-I, sequence (Q5HMY3 entry or part of it): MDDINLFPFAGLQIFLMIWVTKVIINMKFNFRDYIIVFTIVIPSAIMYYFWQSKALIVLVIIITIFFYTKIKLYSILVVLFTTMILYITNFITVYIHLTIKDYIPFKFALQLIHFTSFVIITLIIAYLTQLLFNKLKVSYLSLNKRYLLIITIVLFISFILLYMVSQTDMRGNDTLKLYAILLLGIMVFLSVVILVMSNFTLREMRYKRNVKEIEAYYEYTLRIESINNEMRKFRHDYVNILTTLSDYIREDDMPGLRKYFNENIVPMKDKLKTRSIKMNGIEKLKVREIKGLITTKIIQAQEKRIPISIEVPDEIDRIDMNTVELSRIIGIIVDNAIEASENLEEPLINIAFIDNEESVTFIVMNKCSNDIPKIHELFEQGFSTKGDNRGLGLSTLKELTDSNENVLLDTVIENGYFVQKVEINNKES
S. epidermidis agr-II, sequence (Q8VSX5 entry or part of it): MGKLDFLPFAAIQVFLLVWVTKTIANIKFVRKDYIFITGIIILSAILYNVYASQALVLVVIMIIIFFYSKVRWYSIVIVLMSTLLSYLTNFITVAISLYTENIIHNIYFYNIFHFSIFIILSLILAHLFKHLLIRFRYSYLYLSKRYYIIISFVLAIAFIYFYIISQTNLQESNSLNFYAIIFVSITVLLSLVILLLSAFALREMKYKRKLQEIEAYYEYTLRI

Regarding `CC(C)C[C@@H]1NC(=O)[C@H](Cc2ccc(O)cc2)NC(=O)[C@H](CO)NC(=O)[C@H](C)NC(=O)[C@@H](NC(=O)[C@@H]2CCCN2C(=O)[C@H](CC(N)=O)NC(=O)[C@H](Cc2ccc(O)cc2)NC(=O)[C@H](CCCCN)NC(=O)[C@H](C)NC(=O)[C@H](C)NC(=O)[C@@H](N)CC(N)=O)CSC1=O` [compound 7, S. epidermidis AIP-III] (H-NAAKYNPCASYL; thioester 8-C), the “QS interaction in words (inhibition / activation), S. epidermidis agr-II” value at S. epidermidis agr-II is given as “activator”. Moreover, the concentration for half-maximal inhibition (IC50) was over 10000 nM at SA AgrC-I, over 10000 nM against SA AgrC-III and 34.3 nM in test [1] (ref (11)). Besides, at SA AgrC-II (100 nM cognate AIP, ± SEM, -b = no inhibition recorded at the highest AIP concentration tested, -a = only partial inhibition observed, this study (curves in Fig. S20)), the “IC50, SA AgrC-II, b-lactamase assay” value is “-b”. Also, on SA AgrC-IV, the “IC50, SA AgrC-IV, b-lactamase assay” value is reported as “-b”. The “effect from supernatant (% inhibition, activation or no effect), SE agr-I” value in test [1] (from supernatant, ref (18)) is ~ 50%. The “effect from supernatant (% inhibition, activation or no effect), SE agr-II” value in test [2] (from supernatant, ref (18)) is given as “no effect”. Also, the “effect from supernatant (% inhibition, activation or no effect), SE agr-III” value in test [3] (from supernatant, ref (18)) is “activation”.

As for `CC(C)[C@H](NC(=O)[C@H](CC(N)=O)NC(=O)[C@H](Cc1ccc(O)cc1)NC(=O)[C@@H](N)CO)C(=O)N[C@H]1CSC(=O)[C@H](Cc2ccccc2)NC(=O)[C@H](Cc2ccc(O)cc2)NC(=O)CNC(=O)CNC1=O` [compound 10, S. hominis AIP-I] (H-SYNVCGGYF; thioester 5-C; N-terminus assumed), the “QS interaction in words (inhibition / activation), S. epidermidis agr-I” value at S. epidermidis agr-I was “activates”. Further, the IC50 at SA AgrC-I was 224 ± 37 nM; against SA AgrC-II it was over 1000 nM; on SA AgrC-III, 338 ± 83 nM; in the test with S. aureus (SA) agr-I (ref (12)), 0.624 nM; with S. aureus (SA) agr-I (ref (13)), 13 nM; with S. aureus (SA) agr-II (ref (13)) it was 31 nM. Besides, the IC50 is 5 nM in the test on S. aureus (SA) agr-III (ref (13)), 2910 nM in the test on S. aureus (SA) agr-IV (ref (13)), 34 nM in test [2] (ref (13)) and 16 nM in [3] (ref (13)). Besides, the “IC50, SA AgrC-IV, b-lactamase assay” value on SA AgrC-IV was “-b”. Also, the “inhibition by supernatant, SA agr-II” value with S. aureus (SA) agr-II (by supernatant, ref (12)) is ~ 70%. Moreover, the “inhibition by supernatant, SA agr-III” value in the test with S. aureus (SA) agr-III (by supernatant, ref (12)) is listed as ~ 80%. Besides, the “inhibition by supernatant, SA agr-IV” value in the test with S. aureus (SA) agr-IV (by supernatant, ref (12)) is “no inhibition”.

The IC50 is the midpoint of a concentration-inhibition curve.
